Results: patent publication US20260234157A1, “COMPOUND AND METHOD FOR TARGETED DEGRADATION OF ANDROGEN RECEPTOR” (Gan & Lee Pharmaceuticals Co., Ltd., priority 2023, published 2026)
Positions count from the first letter of the chain named. Where two headings read alike, the source gives them in different places.

Key:
Assay type in all cases: cell-based
[1] = test system: LNCaP FGC cells; experiment: Inhibition of proliferation of LNCaP cells (WST-8); conditions: Homo sapiens, LNCaP, 96 h
Protocol: The cells were cultured in a cell culture incubator with 5% CO2 at 37° C. overnight. […] On the sixth day, 96 well plates were taken out, and 20 μL of WST-8 (Beytime, C0040) reagent was added to each well.

[2] = test system: VCaP cells; experiment: Inhibition of proliferation of VCaP cells (WST-8); conditions: Homo sapiens, read-out: IC50 for inhibiting the proliferation of VCaP cells
In short: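 Proliferation was read by WST-8 on day nine. Cells were VCaP FGC, seeded at 15000 cells per well in 10% FBS DMEM and kept at 37° C with 5% CO2.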

[3] = biological target: T1, AR protein (Homo sapiens, UniProt P10275, T878A); experiment: Degradation of AR protein in LNCaP cells (Western blot); conditions: for inhibition at 0.01 µM: read-out: Degradation rates of the AR protein in LNCaP cells, 10 nM (%); for inhibition at 0.1 µM: read-out: Degradation rates of the AR protein in LNCaP cells, 100 nM (%)
T1 construct: degradation activity of the compounds disclosed in the present disclosure on AR protein in LNCaP cells; host or cells: LNCaP FGC
T1 sequence (P10275 1-920 T878A): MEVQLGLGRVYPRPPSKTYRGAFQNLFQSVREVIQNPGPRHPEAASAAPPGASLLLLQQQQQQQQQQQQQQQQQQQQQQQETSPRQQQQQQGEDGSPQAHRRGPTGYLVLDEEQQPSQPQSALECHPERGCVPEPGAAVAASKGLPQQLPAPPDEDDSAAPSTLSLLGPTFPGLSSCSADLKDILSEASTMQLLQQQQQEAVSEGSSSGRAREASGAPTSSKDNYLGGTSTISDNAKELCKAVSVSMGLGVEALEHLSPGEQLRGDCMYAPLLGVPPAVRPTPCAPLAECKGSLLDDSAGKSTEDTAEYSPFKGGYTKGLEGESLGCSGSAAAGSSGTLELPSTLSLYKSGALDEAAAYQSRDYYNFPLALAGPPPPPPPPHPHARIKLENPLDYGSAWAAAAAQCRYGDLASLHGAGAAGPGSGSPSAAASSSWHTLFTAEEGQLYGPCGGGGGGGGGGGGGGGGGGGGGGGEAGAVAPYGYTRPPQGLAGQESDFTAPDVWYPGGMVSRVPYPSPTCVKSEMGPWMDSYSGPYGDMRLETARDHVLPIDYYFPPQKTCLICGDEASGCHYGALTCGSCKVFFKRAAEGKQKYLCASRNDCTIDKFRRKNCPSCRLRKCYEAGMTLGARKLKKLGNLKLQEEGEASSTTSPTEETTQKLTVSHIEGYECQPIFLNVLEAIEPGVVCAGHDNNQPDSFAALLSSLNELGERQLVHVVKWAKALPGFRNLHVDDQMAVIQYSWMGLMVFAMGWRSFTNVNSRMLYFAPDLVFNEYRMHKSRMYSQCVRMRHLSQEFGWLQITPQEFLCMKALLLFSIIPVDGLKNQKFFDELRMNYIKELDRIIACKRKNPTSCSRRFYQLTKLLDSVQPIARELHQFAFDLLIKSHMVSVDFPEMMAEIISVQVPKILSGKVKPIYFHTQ
In short: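 Percent AR degradation was derived from GAPDH-normalised Western blot band intensities (infrared detection) in LNCaP lysates.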

[4] = biological target: T2, AR protein (Homo sapiens, UniProt P10275); experiment: Degradation of AR protein in VCaP cells (Western blot); conditions: 8 hours; for inhibition at 0.01 µM: compound at 10 nM, read-out: Degradation rate of the AR protein in VCaP cells, 10 nM (%); for inhibition at 0.1 µM: compound at 100 nM, read-out: Degradation rate of the AR protein in VCaP cells, 100 nM (%)
T2 construct: degradation activity of the compounds disclosed in the present disclosure on AR protein in VCaP cells; host or cells: VCaP
T2 sequence (P10275 1-920): T1 sequence (P10275 1-920 T878A) with A878T
In short: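 Western blot readout: AR band grayscale normalised to GAPDH, used to derive degradation rate. Lysates came from VCaP cells exposed to compound for 8 h, with solvent controls run in parallel.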

[5] = LNCaP FGC cells, 96 hours, WST-8 absorbance at 450 nm, read-out: IC50 for inhibiting the proliferation of LNCaP cells
[6] = VCaP cells, 168 hours, WST-8 absorbance at 450 nm
[7] = LNCaP cells, compound 10 nM, 8 hours, Western blot grayscale, GAPDH internal reference
[8] = LNCaP cells, compound 100 nM, 8 hours, Western blot grayscale, GAPDH internal reference
[9] = read-out: IC50 for inhibiting the proliferation of LNCaP cells, LNCaP FGC cells, 96 hours, WST-8 absorbance at 450 nm

Structure (SMILES)	IC50 [1, 5] [nM]	IC50 [2, 6] [nM]	inhibition at 0.01 µM [3, 7] [%]	inhibition at 0.1 µM [3, 8] [%]	inhibition at 0.01 µM [4] [%]	inhibition at 0.1 µM [4] [%]	IC50 [1, 9] [nM]	IC50 ([2]; VCaP, 168 h) [nM]	inhibition at 0.01 µM ([3]; LNCaP, 8 h) [%]	inhibition at 0.1 µM ([3]; LNCaP, 8 h) [%]
CCC1(CN2CCC3(CC2)COc2c3ccc3c2C(=O)N(C2CCC(=O)NC2=O)C3=O)CCN(c2ccc(C(=O)N[C@H]3C(C)(C)[C@H](Oc4ccc(C#N)c(OC)c4)C3(C)C)cc2)CC1 (stereo partly drawn) [Compound 286]	3720	57	22	34	-33	-9	–	–	–	–
COc1cc(O[C@H]2CC[C@H](NC(=O)c3ccc(N4CCC(CN5CCC6(CC5)COc5c6ccc6c5C(=O)N(C5CCC(=O)NC5=O)C6=O)(OC)CC4)cc3)CC2)ccc1C#N (stereo partly drawn) [Compound 219]	–	–	–	–	11	70	260	60	-40	21
N#Cc1ccc(O[C@H]2CC[C@H](NC(=O)c3ccc(N4CCC(F)(CN5CCC6(CC5)COc5c6ccc6c5CN(C5CCC(=O)NC5=O)C6=O)CC4)cn3)CC2)cc1Cl (stereo partly drawn) [Compound 260]	4	1	13	9	15	74	–	–	–	–
COc1cc(O[C@H]2CC[C@H](NC(=O)c3cnc(N4CCC(CN5CCC6(CC5)COc5c6ccc6c5C(=O)N(C5CCC(=O)NC5=O)C6=O)(OC)CC4)nc3)CC2)ccc1C#N (stereo partly drawn) [Compound 220]	64	51	32	63	22	78	–	–	–	–
CCOC1(CN2CCC3(CC2)COc2c3ccc3c2C(=O)N(C2CCC(=O)NC2=O)C3=O)CCN(c2ccc(C(=O)N[C@H]3CC[C@H](Oc4ccc(C#N)c(C(F)(F)F)c4)CC3)nn2)CC1 (stereo partly drawn) [Compound 242]	640	94	-18	11	-5	15	–	–	–	–
N#Cc1ccc(O[C@H]2CC[C@H](NC(=O)c3ccc(N4CCC(N5CCC6(CCc7ccc8c(c7O6)CN(C6CCC(=O)NC6=O)C8=O)CC5)CC4)nn3)CC2)cc1Cl (stereo partly drawn) [Compound 171]	–	–	–	–	46	62	13500	1	22	44
COc1cc(O[C@H]2CC[C@H](NC(=O)c3ccc(N4CCC(CN5CCC6(CC5)COc5c6ccc6c5C(=O)N(C5CCC(=O)NC5=O)C6=O)(OC)CC4)nn3)CC2)ccc1C#N (stereo partly drawn) [Compound 272]	100	63	45	52	38	75	–	–	–	–

Further lines, with some results ahead:

IC50 [1, 5] [nM]	IC50 [2, 6] [nM]	inhibition at 0.01 µM [3, 7] [%]	inhibition at 0.1 µM [3, 8] [%]	Structure (SMILES)	inhibition at 0.01 µM [4] [%]	inhibition at 0.1 µM [4] [%]	IC50 [1, 9] [nM]	IC50 ([2]; VCaP, 168 h) [nM]	inhibition at 0.01 µM ([3]; LNCaP, 8 h) [%]	inhibition at 0.1 µM ([3]; LNCaP, 8 h) [%]
500	160	37	71	N#Cc1ccc(O[C@H]2CC[C@H](NC(=O)c3ccc(N4CCC5(CC4)CC(N4CCC6(CC4)COc4cc7c(cc4C6)C(=O)N(C4CCC(=O)NC4=O)C7=O)C5)nn3)CC2)cc1Cl (stereo partly drawn) [Compound 71]	54	66	–	–	–	–
68600	8.5	50	63	N#Cc1ccc(O[C@H]2CC[C@H](NC(=O)c3ccc(N4CCN(CC(=O)N5CCC6(CC5)COc5c6ccc6c5CN(C5CCC(=O)NC5=O)C6=O)CC4)nn3)CC2)cc1Cl (stereo partly drawn) [Compound 241]	29	77	–	–	–	–
800	580	35	65	CC1(CN2CCC3(CCc4cc5c(cc4O3)C(=O)N(C3CCC(=O)NC3=O)C5=O)CC2)CCN(c2ccc(C(=O)N[C@H]3CC[C@H](Oc4ccc(C#N)c(Cl)c4)CC3)nn2)CC1 (stereo partly drawn) [Compound 17]	39	80	–	–	–	–
500	100	36	75	N#Cc1ccc(O[C@H]2CC[C@H](NC(=O)c3ccc(N4CC5(CCC(N6CCC7(CC6)COc6cc8c(cc6C7)C(=O)N(C6CCC(=O)NC6=O)C8=O)CC5)C4)nn3)CC2)cc1Cl (stereo partly drawn) [Compound 65]	50	71	–	–	–	–
3130	3340	52	35	N#Cc1ccc(O[C@H]2CC[C@H](NC(=O)c3ccc(N4CCC5(CCC(N6CCC7(CCc8ccc9c(c8O7)CN(C7CCC(=O)NC7=O)C9=O)CC6)CC5)CC4)nn3)CC2)cc1Cl (stereo partly drawn) [Compound 150]	65	86	–	–	–	–
5170	7500	58	46	N#Cc1ccc(O[C@H]2CC[C@H](NC(=O)c3ccc(N4CC5(CCc6cc7c(cc6O5)C(=O)N(C5CCC(=O)NC5=O)C7=O)C4)nn3)CC2)cc1Cl (stereo partly drawn) [Compound 6]	13	28	–	–	–	–
3710	5120	31	28	COc1cc(O[C@H]2CC[C@H](NC(=O)c3ccc(N4CCC(CN5CC6(CCc7cc8c(cc7O6)C(=O)N(C6CCC(=O)NC6=O)C8=O)C5)(OC)CC4)nn3)CC2)ccc1C#N (stereo partly drawn) [Compound 231]	11	63	–	–	–	–
